# Where a name gives a salt, the structure may show the parent alone.
# Assays:
# BHK-21 cells = assay: CAT transient transfection; format: cell-based, baby hamster
# Procedure: (§1) A one-to-one mixture (by weight) of the desired lipid and dioleylphosphatidyl ethanolamine was prepared in CHCl3. The CHCl3 was removed on the rotary evaporator to obtain a thin film of lipid mixture. The mixture was hydrated with enough water to obtain approximately 1.25 mg of lipid per ml of solution. The solution was passed through a microfluidizer twice and diluted to 1 mg/ml. The liposome formulation was then filtered through a 0.2 μ filter. Compound 8 was also formulated without DOPE either by sonication at 1 mg/ml in water or by dissolving a dried lipid film with ethanol and then adding water to give a final concentration of 2.5 mg/ml. Ethanol was 10% of that volume. In some instances, this was further diluted with water to 1 mg/ml, 4% ethanol.
# (§2) Baby hamster kidney (BHK-21) , COS-7, HeLa-S3 cells, and normal human fibroblasts isolated from newborn foreskin dermis were grown in Dulbecco's-modified Eagle's medium (DMEM) containing 10% fetal bovine serum (FBS), 2 mM L-glutamine (gln), 0.1 mM MEM nonessential amino acids (NEAA), 100 U/ml penicillin, and 100 μg/ml streptomycin. […]
# Cell lysates were assayed for CAT activity as described by Neumann et al. (1987) BioTechniques 5:444 using [^14 C]-butyryl coenzyme A (New England Nuclear, Boston, Mass.). […] CAT activity was determined by measuring radioactivity in a liquid scintillation counter. […]
# PC12 cells = assay: % protein (toxicity estimate, Bradford) after transfection; format: cell-based, rat; settings: PC12
# Procedure: as §1, §2
# (§3) The "% protein" column indicates the relative amount of protein in the sample tested for CAT activity and therefore provides a way to estimate toxicity of the compounds being tested. […] Protein was measured using a commercially available Bradford protein assay (BioRad Laboratories, Richmond, Ca.). […]
# [1] = as above; format: cell-based, rat; settings: rat, pc12 cells; 40 μg lipid; 2 μg pCMVCAT; 6 h DMEM
# Procedure: as §1, §2, §3
# COS-7 cells [2] = assay: as above; format: cell-based; settings: Cos-7
# Procedure: as §1, §2, §3
# [3] = as above; format: cell-based; settings: monkey, cos-7 cells; 12 μg lipid; 1 μg pSV2CAT; 6 h DMEM
# Procedure: as §1, §2, §3
# COS-7 cells [4] = assay: CAT transient transfection; format: cell-based
# Procedure: as §1
# (§4) Baby hamster kidney (BHK-21) , COS-7, HeLa-S3 cells, and normal human fibroblasts isolated from newborn foreskin dermis were grown in Dulbecco's-modified Eagle's medium (DMEM) containing 10% fetal bovine serum (FBS), 2 mM L-glutamine (gln), 0.1 mM MEM nonessential amino acids (NEAA), 100 U/ml penicillin, and 100 μg/ml streptomycin. NIH-3T3 cells were grown in DMEM containing 10% calf serum (CS), 2 mMgln, 0.1 mM NEAA 100 U/ml penicillin, and 100 μg/ml streptomycin. PC12 cells were grown in DMEMcontaining 10% horse serum, 5% FBS, 2 mM gln, 0 1 mMNEAA, 100 U/ml penicillin and 100 μ/ml streptomycin. Jurkat cells (human lymphoid cell line) were grown in RPMI-1640 supplemented with 10% FBS, 2mML-glutamine, 100 U/ml penicillin, and 100 μg/ml streptomycin. Human keratinocytes were isolated from newborn foreskin epidermis and cultured in Keratinocyte Growth Medium (Clonetics, San Diego, Ca.). All cell lines were maintained in a humidified incubator with a 5% CO2 atmosphere at 37° C.
# (§5) pSV2CAT (5.0 Kb) was described previously (Gorman, C. M. et al. (1982) Mol. Cell. Biol. 2:1044). pCMVCAT (5.0 Kb) was also described previously (Foecking M. K. and Hofstetter, H. (1986) Gene 45:101). Plasmid DNA was purified by isopycnic centrifugation in CsCl/EtBr gradients after recovery by alkaline lysis (Maniatis, T. et al. (1982) in Molecular Cloning: A Laboratory Manual, Cold Spring Harbor Laboratory, Cold Spring Harbor, N.Y., pp. 90-91).
# (§6) For transient transfection of pSV2CAT DNA or pCMVCAT DNA, cells were plated in 6-well tissue culture dishes (35 mm wells) and incubated overnight to approximately 60% confluency. To transfect cells in one well, 1-2 μg of pSV2CAT DNA or pCMVCAT DNA was diluted in 100 μl Opti-MEM I. Cationic lipids were diluted separately in another 100 μl aliquot of Opti-MEM I. The two solutions were then mixed in a polystyrene tube, incubated for 10-15 min at room temperature to allow the formation of a DNA-liposome complex, and diluted to one ml by adding 0.8 ml Opti-MEM I or DMEM containing 5% fetal bovine serum (FBS), 2 mMgln, 0.1 mMNEAA, and lacking antibiotics. The cells were washed once with Opti-MEM I or serum-free DMEM, and the DNA-liposome complex was added directly to the cells. After a six hr incubation at 37° C., the transfection complexes were removed and two ml of DMEM containing 10% FBS, 2 mMgln, 0.2 mMNEAA, 100 U/ml penicillin, and 100 μg/ml streptomycin, was added to each well. Note: human keratinocytes were cultured and transfected in Keratinocyte Growth Medium. Cells were incubated for an additional 48 hrs and lysed in situ by freeze-thawing once or twice in 300 μl 0.1M Tris-HC1, pH 7.8-8.0 containing 0 1% Triton X-100. Cell lysates were assayed for CAT activity.
# (§7) Cell lysates were assayed for CAT activity as described by Neumann et al. (1987) BioTechniques 5:444 using [^14 C]-butyryl coenzyme A (New England Nuclear, Boston, Mass.). The enzyme reactions were incubated for 2 hrs at 37° C., overlayed with 3.0 ml Econofluor (New England Nuclear) and then incubated for an additional 2 hrs to allow diffusion of the acetylated chloramphenicol into the scintillation fluid. CAT activity was determined by measuring radioactivity in a liquid scintillation counter. […]
# [5] = test system: normal human keratinocytes; assay: CAT transient transfection; format: cell-based; settings: keratinocytes
# Procedure: as §1, §4, §5, §6, §7
# NIH-3T3 cells = assay: CAT transient transfection; format: cell-based, mouse
# Procedure: as §1, §4, §5, §6, §7
compound,measurement,setting,value
"CCCCCCCC/C=C\CCCCCCCCOCC(C[N+](C)(C)CCNC(=O)C(CCCNCCCN)NCCCN)OCCCCCCCC/C=C\CCCCCCCC (stereo not shown) [Compound 8, 1-Propanaminium, N-[2-[[2,5-bis[(3-amino]-1-oxopentyl]amino]ethyl]-n,n-dimethyl-2,3,-bis(9-octadecenyloxy)-, tetra(trifluoroacetate) salt]",DNA transfection (in words),BHK-21 cells,highly effective
same,toxicity (in words),PC12 cells,minimal toxicity
same,viability at 6 h,[1],66%
same,toxicity (in words),COS-7 cells [2],minimal toxicity
same,viability at 6 h,[3],99.1%
same,CAT ACTIVITY,"COS-7 cells [4]; 12 μg lipid, 1 μg pSV2CAT, 6 h DMEM","14,282 CPM/150 ul"
same,DNA transfection (in words),COS-7 cells [4]; Cos-7,highly effective
same,DNA transfection (in words),[5],highly effective
same,CAT ACTIVITY,"NIH-3T3 cells; 15 μg lipid, 2 μg pCMVCAT, 6 h DMEM","30,488 CPM/150 ul"
same,DNA transfection (in words),NIH-3T3 cells; NIH-3T3,highly effective

# Reference: US5334761A, “Cationic lipids” (Life Technologies, Inc., priority 1992, dated 1994)
